In brackets after ≈: the same amount, converted by molar mass.
How the values were obtained:
M. avium = assay: Antibacterial activity (MIC) against M. avium; type: cell-based, Mycobacterium avium
Description: Antibacterial activity of the compounds of the invention was measured in accordance with the method described in the literature of Antimicrob. […] In the tables, “OFLX” is an abbreviation of “OFLOXAIN”.

M. intracellulare = assay: Antibacterial activity (MIC) against M. intracellulare; type: cell-based, Mycobacterium intracellulare
Description: Antibacterial activity of the compounds of the invention was measured in accordance with the method described in the literature of Antimicrob. Agents and Chemother., 38, 2877 (1994), and the results are shown in Tables 3 to 8 in terms of MIC (μg/ml). In the tables, “OFLX” is an abbreviation of “OFLOXAIN”.

[1] = system: Mycobacterium tuberculosis (RFP sensitive); assay: Antibacterial activity (MIC) against Mycobacterium tuberculosis (RFP sensitive); type: cell-based
[2] = M. avium N-357, Table 4 (series 2)
[3] = M. avium N-444, Table 4 (series 2)
[4] = M. avium N-458, Table 4 (series 2)
[5] = M. avium N-472, Table 4 (series 2)
[6] = M. intracellulare N-294, Table 4 (series 2)
[7] = M. intracellulare N-313, Table 4 (series 2)
[8] = M. intracellulare N-338, Table 4 (series 2)
[9] = M. intracellulare N-345, Table 4 (series 2)
[10] = M. tuberculosis H37Rv, Table 6 (series 2)
[11] = M. tuberculosis Kurono, Table 6 (series 2)
[12] = M. tuberculosis No. 40, Table 6 (series 2)
[13] = M. tuberculosis No. 41, Table 6 (series 2)
[14] = M. tuberculosis No. 43, Table 6 (series 2)
[15] = M. tuberculosis No. 68, Table 6 (series 2)
[16] = M. intracellulare N-294, Table 3
[17] = M. intracellulare N-313, Table 3
[18] = M. intracellulare N-338, Table 3
[19] = M. intracellulare N-345, Table 3
[20] = M. tuberculosis Kurono, Table 5
[21] = M. tuberculosis No. 40, Table 5
[22] = M. tuberculosis No. 41, Table 5
[23] = M. tuberculosis No. 43, Table 5
[24] = M. tuberculosis No. 68, Table 5

| Compound | MIC (M. avium; M. avium N-357, Table 3) [µg/mL] | MIC (M. avium; M. avium N-444, Table 3) [µg/mL] | MIC (M. avium; M. avium N-458, Table 3) [µg/mL] | MIC (M. avium; M. avium N-472, Table 3) [µg/mL] | MIC (M. intracellulare; [16]) [µg/mL] | MIC (M. intracellulare; [17]) [µg/mL] | MIC (M. intracellulare; [18]) [µg/mL] | MIC (M. intracellulare; [19]) [µg/mL] | MIC ([1]; M. tuberculosis H37Rv, Table 5) [µg/mL] | MIC [1, 20] [µg/mL] | MIC [1, 21] [µg/mL] | MIC [1, 22] [µg/mL] | MIC [1, 23] [µg/mL] | MIC [1, 24] [µg/mL] | other results |
| --- | --- | --- | --- | --- | --- | --- | --- | --- | --- | --- | --- | --- | --- | --- | --- |
| CCC1CN(c2c(F)cc3c(=O)c(C(=O)O)cn(C4CC4)c3c2OC)CCN1 (centres unmarked) [Compd. 17] | – | – | – | – | – | – | – | – | – | – | – | – | – | – | MIC (M. avium; [2]): 1.0 µg/mL (≈ 2.57 µM); MIC (M. avium; [3]): 2.0 µg/mL (≈ 5.14 µM); MIC (M. avium; [4]): 1.0 µg/mL (≈ 2.57 µM); MIC (M. avium; [5]): 8.0 µg/mL (≈ 20.5 µM); MIC (M. intracellulare; [6]): 2.0 µg/mL (≈ 5.14 µM); MIC (M. intracellulare; [7]): 0.25 µg/mL (≈ 0.642 µM); MIC (M. intracellulare; [8]): 1.0 µg/mL (≈ 2.57 µM); MIC (M. intracellulare; [9]): 1.0 µg/mL (≈ 2.57 µM); MIC [1, 10]: 0.12 µg/mL (≈ 0.308 µM); MIC [1, 11]: 0.12 µg/mL (≈ 0.308 µM); MIC [1, 12]: 0.12 µg/mL (≈ 0.308 µM); MIC [1, 13]: 0.06 µg/mL (≈ 0.154 µM); MIC [1, 14]: 2.0 µg/mL (≈ 5.14 µM); MIC [1, 15]: 0.25 µg/mL (≈ 0.642 µM) |
| Cc1c(N2CC3CCCNC3C2)c(F)cc2c(=O)c(C(=O)O)cn(C3CC3)c12 (centres unmarked) [Compd. 9] | 0.10 (≈ 0.259 µM) | 0.10 (≈ 0.259 µM) | 0.10 (≈ 0.259 µM) | 0.78 (≈ 2.02 µM) | 0.39 (≈ 1.01 µM) | 0.10 (≈ 0.259 µM) | 0.39 (≈ 1.01 µM) | 0.39 (≈ 1.01 µM) | 0.025 (≈ 0.0649 µM) | 0.013 (≈ 0.0337 µM) | 0.013 (≈ 0.0337 µM) | <0.003 | 0.10 (≈ 0.259 µM) | 0.025 (≈ 0.0649 µM) | – |
| Cc1c(N2CC(N)C3(CC3)C2)c(F)cc2c(=O)c(C(=O)O)cn(C3CC3)c12 (centres unmarked) [Compd. 11] | 0.39 (≈ 1.05 µM) | 1.56 (≈ 4.2 µM) | 0.39 (≈ 1.05 µM) | 3.13 (≈ 8.43 µM) | 1.56 (≈ 4.2 µM) | 0.39 (≈ 1.05 µM) | 1.56 (≈ 4.2 µM) | 3.13 (≈ 8.43 µM) | 0.05 (≈ 0.135 µM) | 0.05 (≈ 0.135 µM) | 0.05 (≈ 0.135 µM) | 0.013 (≈ 0.035 µM) | 0.39 (≈ 1.05 µM) | 0.05 (≈ 0.135 µM) | – |
| CCC1CN(c2c(F)cc3c(=O)c(C(=O)O)cn(C4CC4F)c3c2OC)CCN1 (centres unmarked) [Compd. 18] | – | – | – | – | – | – | – | – | – | – | – | – | – | – | MIC (M. avium; [2]): 0.50 µg/mL (≈ 1.23 µM); MIC (M. avium; [3]): 2.0 µg/mL (≈ 4.91 µM); MIC (M. avium; [4]): 1.0 µg/mL (≈ 2.45 µM); MIC (M. avium; [5]): 8.0 µg/mL (≈ 19.6 µM); MIC (M. intracellulare; [6]): 2.0 µg/mL (≈ 4.91 µM); MIC (M. intracellulare; [7]): 0.25 µg/mL (≈ 0.614 µM); MIC (M. intracellulare; [8]): 0.50 µg/mL (≈ 1.23 µM); MIC (M. intracellulare; [9]): 0.50 µg/mL (≈ 1.23 µM); MIC [1, 10]: 0.12 µg/mL (≈ 0.295 µM); MIC [1, 11]: 0.12 µg/mL (≈ 0.295 µM); MIC [1, 12]: 0.12 µg/mL (≈ 0.295 µM); MIC [1, 13]: 0.06 µg/mL (≈ 0.147 µM); MIC [1, 14]: 1.0 µg/mL (≈ 2.45 µM); MIC [1, 15]: 0.25 µg/mL (≈ 0.614 µM) |
| COc1c(N2CC(N)C3(CC3)C2)c(F)cc2c(=O)c(C(=O)O)cn(C3CC3)c12 (centres unmarked) [Compd. 7] | 0.39 (≈ 1.01 µM) | 1.56 (≈ 4.03 µM) | 0.78 (≈ 2.01 µM) | 6.25 (≈ 16.1 µM) | 0.78 (≈ 2.01 µM) | 0.2 (≈ 0.516 µM) | 0.39 (≈ 1.01 µM) | 1.56 (≈ 4.03 µM) | – | – | – | – | – | – | – |
| NC1CN(c2c(F)cc3c(=O)c(C(=O)O)cn([C@@H]4C[C@@H]4F)c3c2Cl)CC12CC2 (some centres unmarked) [Compd. 4] | 0.20 (≈ 0.488 µM) | 0.78 (≈ 1.9 µM) | 0.39 (≈ 0.952 µM) | 1.56 (≈ 3.81 µM) | 1.56 (≈ 3.81 µM) | 0.39 (≈ 0.952 µM) | 1.56 (≈ 3.81 µM) | 3.13 (≈ 7.64 µM) | 0.025 (≈ 0.061 µM) | 0.013 (≈ 0.0317 µM) | 0.025 (≈ 0.061 µM) | <0.003 | 0.20 (≈ 0.488 µM) | 0.025 (≈ 0.061 µM) | – |
| O=C(O)c1cn([C@@H]2C[C@@H]2F)c2c(Cl)c(N3CC4CCCNC4C3)c(F)cc2c1=O (some centres unmarked) [Compd. 2] | 0.20 (≈ 0.472 µM) | 0.39 (≈ 0.92 µM) | 0.20 (≈ 0.472 µM) | 0.78 (≈ 1.84 µM) | 0.39 (≈ 0.92 µM) | 0.20 (≈ 0.472 µM) | 0.39 (≈ 0.92 µM) | 0.78 (≈ 1.84 µM) | 0.025 (≈ 0.059 µM) | 0.013 (≈ 0.0307 µM) | 0.025 (≈ 0.059 µM) | 0.006 (≈ 0.0142 µM) | 0.10 (≈ 0.236 µM) | 0.025 (≈ 0.059 µM) | – |

Reference: US7176313B2, “Anti acid-fast bacterial agent containing pyridonecarboxylic acids as active ingredient” (Daiichi Pharmaceutical Co., Ltd., priority 2000, dated 2007)
